Test results as given in patent US20250049698A1, “BIOACTIVE SERUM FRACTIONS FROM FRESH ROSE FLOWERS AND METHODS FOR THEIR PREPARATION AND USES” (ISP INVESTMENTS LLC, priority 2021, published 2025).

Experiment: DPPH free radical scavenging assay
Format: biochemical
Settings: positive control; dilution from 5% (w/v) stock solution
Excerpt: DPPH assay provides an easy and rapid way to evaluate potential antioxidants. A free radical is an atom or molecule that has one or more unpaired electrons. The evidence is that reactive species of oxygen (O2-, H2O2, and NO2+) play an important role in inflammation, neurodegenerative disorders, and cancer, etc. Antioxidants can react with the nitrogen centered radical DPPH (2,2-Diphenyl-1-Picrylhydrazyl) and convert it to the non-radical 2,2-Diphenyl-1-Picrylhydrazine. The changes in color (from deep violet to light yellow) were read at 517 nm after 60 min of reaction using a UV/VIS Spectrophotometer. DPPH free radical scavenging method offers the first approach for evaluating the antioxidant potential of a compound or extract. DPPH free radical scavenging activity was determined to assess antioxidant activities for test articles by following protocol. DPPH (Sigma-Aldrich, 300267, St. Louis, MO, USA) solution of 0.06 mM in absolute methanol was prepared. Test articles with different concentrations (20 μl) were mixed with 180 μl of DPPH solution to obtain a total of 200 μl per well in a 96-well plate. After 60 min incubation at room temperature in the dark, the absorbance was measured at 517 nm by using a microplate spectrophotometer Biotek Synergy 2 (Biotek Instruments Inc, Winooski, VT, USA). […] The ability to scavenge DPPH radicle was calculated as % inhibition. […]

O=C1O[C@H]([C@@H](O)CO)C(O)=C1O [L-(+)-ascorbic acid (Vitamin C), L-(+)-ascorbic acid]
DPPH free radical scavenging IC50: 0.01 % (v/v)
